According to ChEMBL document CHEMBL1148064, “Nepheliosyne A, new C47 acetylenic acid from the Okinawan marine sponge Xestospongia sp” (1994):

Columns and labels:
L1210 = assay: Cytotoxicity against mouse L1210 cells at 20 ug/cm'3; format: functional
KB = assay: Cytotoxicity against human KB cells at 20 ug/cm'3; format: functional

C#CC(O)/C=C/C(O)C/C=C/CC(O)C#CC(O)C#CC(O)CCC/C=C\CCCCCCCCC(O)C(=O)CCCCCCCCCC(O)CC(O)C#CC(=O)O (configuration not stated) [NEPHELIOSYNE A]
Activity (L1210): 40% | Activity (KB): 14%
